According to PubChem BioAssay (NCI):
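Where inhibition never reached the appropriate level, the endpoint shown equals the highest concentration tested. Otherwise, values were interpolated linearly from a five-concentration, 48-hour dose response in 96-well plates. Here, GI50 denotes the concentration required for 50% inhibition of growth. The concentration for full growth arrest is given as TGI.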

Tests used:
Assay in all cases: inhibition of tumour cell growth, NCI panel, 48 h
OVCAR-8 ovarian = system: OVCAR-8 ovarian
CCRF-CEM leukemia = system: CCRF-CEM leukemia
EKVX NSCLC = system: EKVX NSCLC
T-47D breast = system: T-47D breast
NCI-H23 lung = system: NCI-H23 lung
CAKI-1 renal = system: CAKI-1 renal
SNB-19 CNS = system: SNB-19 CNS
A498 renal = system: A498 renal
M14 melanoma = system: M14 melanoma
SF-295 CNS = system: SF-295 CNS
HCT-15 colon = system: HCT-15 colon
SF-539 CNS = system: SF-539 CNS
U251 CNS = system: U251 CNS
PC-3 prostate = system: PC-3 prostate
HOP-92 NSCLC = system: HOP-92 NSCLC
NCI-H226 lung = system: NCI-H226 lung
HL-60(TB) leukemia = system: HL-60(TB) leukemia
UACC-257 melanoma = system: UACC-257 melanoma
HS 578T breast = system: HS 578T breast
LOX IMVI melanoma = system: LOX IMVI melanoma
RXF 393 renal = system: RXF 393 renal
BT-549 breast = system: BT-549 breast
A549 NSCLC = system: A549 NSCLC
NCI-H460 lung = system: NCI-H460 lung
MOLT-4 leukemia = system: MOLT-4 leukemia
UO-31 renal = system: UO-31 renal
NCI/ADR-RES ovarian = system: NCI/ADR-RES ovarian
OVCAR-4 ovarian = system: OVCAR-4 ovarian
SN12C renal = system: SN12C renal

## C=C(C)[C@@H]1CC[C@]2(C)[C@H](CC[C@@H]3[C@@H]([C@@](C)(O)CCC=C(C)C)CC[C@]32C)[C@@]1(C)CCC(=O)N1CCN(C)CC1
OVCAR-8 ovarian
  GI50: 14.1 µM
  TGI: 30.5 µM
CCRF-CEM leukemia
  GI50: 11.6 µM
  TGI: 37.6 µM
EKVX NSCLC
  GI50: 11.6 µM
  TGI: 23.9 µM
T-47D breast
  GI50: 4.72 µM
  TGI: 19.6 µM
NCI-H23 lung
  GI50: 13.7 µM
  TGI: 27.5 µM
CAKI-1 renal
  GI50: 12.4 µM
  TGI: 24.9 µM
SNB-19 CNS
  GI50: 15 µM
  TGI: 28.4 µM
A498 renal
  GI50: 13.2 µM
  TGI: 26.6 µM
M14 melanoma
  GI50: 10.1 µM
  TGI: 24.2 µM
SF-295 CNS
  GI50: 13.4 µM
  TGI: 26.2 µM
HCT-15 colon
  GI50: 6.04 µM
  TGI: 18.1 µM
SF-539 CNS
  GI50: 9.44 µM
  TGI: 21.7 µM
U251 CNS
  GI50: 10.1 µM
  TGI: 22 µM
PC-3 prostate
  GI50: 3.77 µM
  TGI: 15.8 µM
HOP-92 NSCLC
  GI50: 6.4 µM
  TGI: 20.7 µM
NCI-H226 lung
  GI50: 12.9 µM
  TGI: 31.7 µM
HL-60(TB) leukemia
  GI50: 4.26 µM
  TGI: 19.2 µM
UACC-257 melanoma
  GI50: 11.8 µM
  TGI: 25.6 µM
HS 578T breast
  GI50: 13.1 µM
  TGI: 36.5 µM
LOX IMVI melanoma
  GI50: 13.4 µM
  TGI: 26.5 µM
RXF 393 renal
  GI50: 5.25 µM
  TGI: 16.4 µM
BT-549 breast
  GI50: 11.2 µM
  TGI: 24.1 µM
A549 NSCLC
  GI50: 9.65 µM
  TGI: 24.2 µM
NCI-H460 lung
  GI50: 16.9 µM
  TGI: 32.9 µM
MOLT-4 leukemia
  GI50: 6.39 µM
  TGI: 29.3 µM
UO-31 renal
  GI50: 11.3 µM
  TGI: 23.3 µM
NCI/ADR-RES ovarian
  GI50: 12.1 µM
  TGI: 25 µM
OVCAR-4 ovarian
  GI50: 10.1 µM
  TGI: 23.4 µM
SN12C renal
  GI50: 11.4 µM
  TGI: 24.2 µM
